Consider two compounds from ChEMBL document CHEMBL3886578, “Pharmaceutical composition for treating diabetes” (2016).

Broadly, the EC50 is the concentration needed to bring the measured effect to its halfway point.

The test has as its target T1, Glycogen [starch] synthase, muscle (Homo sapiens, UniProt P13807).
T1 sequence (P13807 whole entry): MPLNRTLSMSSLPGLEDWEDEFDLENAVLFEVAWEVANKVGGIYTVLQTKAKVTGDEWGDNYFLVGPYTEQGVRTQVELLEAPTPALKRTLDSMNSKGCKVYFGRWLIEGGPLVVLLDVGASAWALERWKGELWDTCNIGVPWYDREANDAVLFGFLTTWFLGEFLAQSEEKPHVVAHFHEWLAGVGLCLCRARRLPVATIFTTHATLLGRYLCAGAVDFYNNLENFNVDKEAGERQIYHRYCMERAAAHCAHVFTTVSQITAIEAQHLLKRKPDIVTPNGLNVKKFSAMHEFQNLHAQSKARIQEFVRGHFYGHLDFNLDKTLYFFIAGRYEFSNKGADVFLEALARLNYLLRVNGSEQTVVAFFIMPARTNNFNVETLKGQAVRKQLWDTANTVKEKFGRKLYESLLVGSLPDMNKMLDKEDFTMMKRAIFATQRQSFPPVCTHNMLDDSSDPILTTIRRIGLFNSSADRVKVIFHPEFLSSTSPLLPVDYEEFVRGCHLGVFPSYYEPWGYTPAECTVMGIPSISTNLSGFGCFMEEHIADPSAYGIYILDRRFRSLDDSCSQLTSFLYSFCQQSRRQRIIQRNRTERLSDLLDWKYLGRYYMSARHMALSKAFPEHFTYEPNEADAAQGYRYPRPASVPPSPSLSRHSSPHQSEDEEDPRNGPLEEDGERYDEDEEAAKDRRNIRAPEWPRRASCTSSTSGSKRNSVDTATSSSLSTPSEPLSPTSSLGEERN
The experiment in a line: Glycogen Synthase Activity Assay: To a polystyrene 96-well plate, a solution containing 30 mM glycylglycine (pH 7.3), 40 mM KCl, 20 mM MgCl2, 9.2% DMSO containing one of the test compounds at various concentrations, and 10 mM glucose-6-phosphate (Sigma-Aldrich Corporation, G7879) was added by 12 uL/well. Next, a substrate solution containing 30 mM glycylglycine (pH 7.3), 4.3 mg/mL of glycogen (Sigma-Aldrich Corporation, G8876), 21.6 mM UDP-glucose (Sigma-Aldrich Corporation, U4625), 21.6 mM phosphoenolpyruvic acid (Sigma-Aldrich Corporation, P0564), and 4.05 mM NADH (Sigma-Aldrich Corporation, N8129) was added by 18 uL/well. Further, an enzyme solution containing 50 mM Tris-HCl (pH 8.0), 27 mM DTT (Nacalai Tesque, Inc., 14128-04), 0.2 mg/mL of bovine serum albumin, 0.17 mg/mL of the glycogen synthase, 1.5 uL of a pyruvate kinase/lactate dehydrogenase solution (Sigma-Aldrich Corporation, P0294) was added by 18 uL/well to prepare a reaction solution. After the reaction solution was incubated (at 30° C. for 25 minutes for Examples 1 to 10, at 37° C. for 20 minutes for Examples 11 to 75), the absorbance at 340 nm was measured using Benchmark Plus (Bio-Rad Laboratories, Inc.).

`O=C(O)[C@@H]1CCCN1C(=O)c1cccc(COc2ccc(-c3cc(F)cc4c3OCC=C4)cc2)c1`: the EC50 turned out to be 780 nM.
The same measure for `O=C(O)[C@@H]1CCCN1C(=O)c1cccc(COc2ccc(-c3cc(F)c(F)c4c3OCC=C4)cc2)c1`: 100 nM.
